By IC50 is commonly meant the midpoint of a concentration-inhibition curve.

Among the data in PubChem BioAssay AID1671292 are IC50 values, retold here.

The target in the test is Homeodomain-interacting protein kinase 1 (Homo sapiens) (UniProt Q86Z02). The test can be described thus: inhibition of human HIPK1 (Myak) activity – biochemical, Z'-LYTE, FRET, protease-coupled, direct format, dose response (AID 1671292). As to conditions: Z'-LYTE FRET kinase assay, recombinant HIPK1.
Homeodomain-interacting protein kinase 1 (Homo sapiens), sequence (Q86Z02 whole entry, looked up): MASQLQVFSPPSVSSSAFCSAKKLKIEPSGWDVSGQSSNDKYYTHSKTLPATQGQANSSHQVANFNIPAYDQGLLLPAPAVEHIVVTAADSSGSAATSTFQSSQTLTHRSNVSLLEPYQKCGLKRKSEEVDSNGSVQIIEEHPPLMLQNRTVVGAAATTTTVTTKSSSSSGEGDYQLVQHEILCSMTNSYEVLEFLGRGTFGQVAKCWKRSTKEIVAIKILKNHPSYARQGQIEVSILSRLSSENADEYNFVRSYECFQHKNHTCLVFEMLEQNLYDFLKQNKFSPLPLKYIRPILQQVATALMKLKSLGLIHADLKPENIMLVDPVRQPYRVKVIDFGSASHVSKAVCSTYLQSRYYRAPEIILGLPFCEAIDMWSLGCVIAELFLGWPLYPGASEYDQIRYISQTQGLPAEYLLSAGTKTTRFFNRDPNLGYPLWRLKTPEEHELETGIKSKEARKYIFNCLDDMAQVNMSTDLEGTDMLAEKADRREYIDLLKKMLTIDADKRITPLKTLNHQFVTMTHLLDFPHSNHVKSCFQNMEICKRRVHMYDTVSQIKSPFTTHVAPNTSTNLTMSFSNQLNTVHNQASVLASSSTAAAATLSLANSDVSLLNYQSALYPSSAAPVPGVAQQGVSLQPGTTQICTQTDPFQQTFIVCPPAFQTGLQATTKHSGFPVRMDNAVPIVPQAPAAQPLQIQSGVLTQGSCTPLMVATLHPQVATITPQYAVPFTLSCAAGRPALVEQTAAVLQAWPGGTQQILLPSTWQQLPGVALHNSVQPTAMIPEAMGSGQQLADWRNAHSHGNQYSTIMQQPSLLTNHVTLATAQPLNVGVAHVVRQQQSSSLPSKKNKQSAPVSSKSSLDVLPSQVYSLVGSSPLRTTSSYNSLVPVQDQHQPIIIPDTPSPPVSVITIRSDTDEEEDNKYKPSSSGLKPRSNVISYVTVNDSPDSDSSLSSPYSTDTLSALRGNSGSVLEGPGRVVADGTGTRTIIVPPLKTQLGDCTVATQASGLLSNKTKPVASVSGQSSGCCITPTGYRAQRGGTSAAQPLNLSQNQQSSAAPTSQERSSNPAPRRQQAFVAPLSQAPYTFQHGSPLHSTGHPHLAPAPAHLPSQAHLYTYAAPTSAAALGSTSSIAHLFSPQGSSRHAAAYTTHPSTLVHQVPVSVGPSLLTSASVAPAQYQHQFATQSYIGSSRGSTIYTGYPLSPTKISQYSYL

In the case of `Brc1c(Br)c(Br)c2n[nH]nc2c1Br`, the IC50 is 4.47 µM.
